According to US20030138856A1, “Process for the measurement of dinophysistoxin and yessotoxin” (priority 2000, published 2003):

Tested on: E-cadherin and related antigens ECRA100 and ECRA135 in MCF-7 cells
Experiment: E-cadherin, ECRA135 and ECRA100 levels in cytosoluble extracts of toxin-treated MCF-7 cells (SDS-PAGE, anti-E-cadherin immunoblotting, densitometry)
Type: cell-based, human
Details: for pattern of E-cadherin and related antigens on immunoblot (FIG. 1): 50 nM each agent, 18 hr at 37° C.; for concentration above which the pattern characteristic for each group of toxins is maintained when the two groups are present at the same time: both toxins together in the cell culture
Protocol: The MCF-7 cell line employed in these experiments has been obtained from the European Collection of Cell Cultures (ECACC No: 86012803; CB No: CB2705). Cells have been maintained at 37° C. in an atmosphere containing 5% CO2 in Petri dishes, in a culture medium composed of Dulbecco's modified MEM, containing foetal bovine serum (10%), nonessential aminoacids (1%) and 2 mM glutamine. Cell treatments have been carried out by adding appropriate aliquots of toxins from stock solutions prepared with absolute ethanol, and control cultures received an identical volume of vehicle. Working solutions of the different agents were obtained by serial dilutions of stock solutions, represented by 50 μM okadaic acid and 500 μM yessotoxin, respectively, and were stored at −20° C., in glass vials, protected from light. The ethanol concentrations in culture media has never been higher than 0.5% (v/v), which represents a concentration uncapable to affect the molecular parameters measured in these experiments.
The cellular extracts employed in the present analyses have been obtained from the cells adhering to culture vessels at the end of the indicated treatments, and the procedure was carried out at 4° C. Cells were washed three times with 20 mM phosphate buffer, pH 7.4, containing 0.15 M NaCl (PBS) and were then lysed by the addition of 25 μl of lysis buffer/cm^2 of culture surface area, and by keeping cells in contact with this solution for 10 minutes at 4° C. The lysis buffer was composed of PBS, containing: 0.5% (w/v) Na deoxycholate, 0.1% (w/v) Na dodecylsulfate (SDS), 1% (v/v) Triton X-100, 0.1 mg/ml phenylmethyl sulfonyl fluoride (PMSF). Cellular lysates were then centrifuged for 30 minutes at 16000 xg, and the supernatants of this centrifugation (cytosoluble extracts) were recovered and used to measure their total protein content by a […] method, using bicinchoninic acid (Smith P. K et al., 1985, Anal. Biochem., 150:76). Cytosoluble extracts were then brought to a final 2% SDS, 5% β-mercaptoethanol and 20% glycerol concentration, and were treated for 5 min at 100° C., before being used for protein fractionation by electrophoresis.
Samples, usually containing the same amount of protein, corresponding to about 50 μg, were subjected to polyacrylamide gel electrophoresis in the presence of SDS, according to the procedure by Laemmli (Laemmli U. K. , 1970, Nature, 227:680), using separating gels containing 10% acrylamide monomer. At the end of the electrophoresis (running time about 3 hr at 170 Volts), proteins were electrophoretically transferred to a nitrocellulose membrane (Protran B83), and were then stained with Ponceau S.
Aspecific binding sites on the membrane were then saturated by a 1 hr incubation at room temperature with a solution composed of 20 mM Tris-HCl, pH 7.5 at 25° C., 150 mM NaCl (TBS), containing 3% (w/v) low fat dry milk and 1 mM CaCl2. The membrane was then incubated with TBS containing 1 % (w/v) low fat dry milk, 1 mM CaCl2, and 2 μg of anti-E-cadherin antibody/ml buffer, for 1 hr at room temperature. At the end of the incubation the membrane was washed four times for 5 min and then a fifth time for 10 min with TBS containing 0.05% (w/v) Tween 20 (TBS-Tween buffer). The membrane was then incubated with TBS-Tween containing 1% (w/v) low fat dry milk and secondary antibody (horse radish peroxydase conjugated anti-mouse Ig antibody) at a 1:3000 dilution, for 1 hr at room temperature. At the end of this incubation, the membrane was washed as previously described, and the antigens were then detected by the ECL procedure and autoradiography, using Kodak X-Omat films. The electropherogram was then subjected to densitometric scanning, and the absorbance measured from the peak area was recorded and used to quantify the detected antigens. […]

[1] = MCF-7 cells, YTX 1 μM, 24 hr incubation, n=4
[2] = MCF-7 cells treated with 50 nM OA

C=CCC(=C)/C=C/[C@@](C)(O)[C@H]1O[C@@H]2C[C@@H]3O[C@@H]4C[C@@H]5O[C@@H]6C[C@@H]7O[C@@H]8C[C@@H]9O[C@@H]%10C[C@@H]%11O[C@](C)(CCOS(=O)(=O)O)[C@@H](OS(=O)(=O)O)C[C@H]%11O[C@H]%10C[C@H]9O[C@H]8CC[C@@]7(C)O[C@@]6(C)CC[C@H](C)[C@H]5O[C@H]4C[C@@]3(C)O[C@H]2CC1=C [YTX, yessotoxin]
ECRA135 detection after treatment with YTX alone (MCF-7 cells): never been detected
pattern of E-cadherin and related antigens on immunoblot (FIG. 1) (MCF-7 cells): most immunoreactivity is associated with the 100 kDa (101.9±3.2 kDa) band
YTX concentration at which the increase in immunoreactive material (Σ) is detectable (MCF-7 cells, 20 hr): about 0.2 nM
YTX concentration at which the increase in immunoreactive material reaches maximal levels (MCF-7 cells, 20 hr): ≥ 1 nM
equivalent YTX concentrations within which proportionality in the assay is maintained, as mass concentration (MCF-7 cells, 20 hr, corresponding to 0.2-0.5 nM): 240-600 pg YTX/ml
ECRA135 detection (MCF-7 cells, YTX 1 μM, 24 hr incubation): undetectable
E-cadherin, share of total immunoreactivity [1]: 52.0±1.7
ECRA100, share of total immunoreactivity [1]: 48.0±1.7
relative total immunoreactivity (Σ), as compared to controls [1]: 190±32%
E-cadherin level, percentage of total immunoreactivity (E-cadherin+ECRA100+ECRA135) of the sample ([YTX] ≧0.5 nME/[DTX] <25 nME): 40-60%
ECRA100 level, percentage of total immunoreactivity of the sample ([YTX] ≧0.5 nME/[DTX] <25 nME): 40-60%
relative total immunoreactivity (Σ), percentage of total immunoreactivity in the controls ([YTX] ≧0.5 nME/[DTX] <25 nME): 150-250%
concentration above which the pattern characteristic for each group of toxins is maintained when the two groups are present at the same time: > 0.4 nM

C=C1[C@@H](O)[C@@H]2O[C@]3(CC[C@H](/C=C/[C@@H](C)[C@@H]4CC(C)=C[C@@]5(O[C@H](C[C@@](C)(O)C(=O)O)CC[C@H]5O)O4)O3)CC[C@H]2O[C@@H]1[C@@H](O)C[C@H](C)[C@H]1O[C@@]2(CCCCO2)CC[C@H]1C [OA, okadaic acid]
E-cadherin, % of total immunoreactivity [2]: 77.6±12.3%
ECRA100, % of total immunoreactivity [2]: 1.8±3.1%
ECRA135, % of total immunoreactivity [2]: 20.6±9.6%
relative total immunoreactivity (Σ), % of that in extracts from control cells [2]: 15.4±8.7%
pattern of E-cadherin and related antigens on immunoblot (FIG. 1) (MCF-7 cells): appearance of ECRA135
OA concentration at which ECRA100 levels are minimal (MCF-7 cells, 20 hr): higher than 50 nM
OA concentration at which ECRA135 level is maximal (MCF-7 cells, 20 hr): 75 nM
OA concentration at which detection of ECRA135 starts (MCF-7 cells, 20 hr): 20 to 30 nM
OA concentration at which the decrease in immunoreactive material (Σ) can be detected (MCF-7 cells, 20 hr): higher than 10 nM
OA concentration at which the decrease in immunoreactive material (Σ) is maximal (MCF-7 cells, 20 hr): higher than 75 nM
equivalent OA concentrations within which proportionality in the assay is kept (MCF-7 cells, 20 hr): 30 to 75 nM
equivalent OA concentrations within which proportionality in the assay is kept, as mass concentration (MCF-7 cells, 20 hr, corresponding to 30-75 nM): 25-60 ng OA/ml
concentration above which the pattern characteristic for each group of toxins is maintained when the two groups are present at the same time: higher than 35 nM
